{"source": "patent US11000509B2", "about": "“Methods and compositions for daily ophthalmic administration of phentolamine to improve visual performance” (Ocuphire Pharma, Inc., priority 2013, dated 2021)", "test_system": "eyes of patients with pupil size in dim light of greater than 7 mm", "test": "Example 2 clinical study: monocular low contrast visual acuity under photopic conditions (5% tint chart)", "format": "in vivo, humans", "settings": "for mean low contrast acuity compared to baseline: paired t-test", "experimental": "Sixteen patients were randomized into four groups (of four subjects each). Each group was treated on three successive study visits separated by at least 4 days with one drop of ophthalmic oxymetazoline solution (Visine LR®) in each eye followed by one drop test article in each eye. The test article was a 0.2% (w/v) phentolamine mesylate solution, 0.4% (w/v) phentolamine mesylate solution, 0.8% (w/v) phentolamine mesylate solution, or placebo. Test articles contained the designed amount of phentolamine mesylate in a solution of Tears Naturale II® (from Alcon Labs). Placebo was just Tears Naturale II® (from Alcon Labs). Tears Naturale II® (from Alcon Labs) contains Dextran 70 (0.1% by weight), Hydroxypropyl Methylcellulose 2910 (0.3% by weight), Polyquarternium-1 (0.001% by weight), potassium chloride, water (purified), sodium borate, sodium chloride, and hydrochloric acid and/or sodium hydroxide as necessary to adjust the pH. The patients' eye redness and pupil diameters were recorded at baseline (i.e., prior to treatment administration), and at 30 minutes, 1 hour, 2 hours, 4 hours, and 8 hours after administration of test articles. The incidence of any treatment-emergent adverse events was also recorded. Total study duration was approximately nine hours.\nEye redness of patients' eyes was evaluated by the research assistant and recorded as a single integer of value 0 (no redness) to 4 (extreme redness) at baseline and each time point after treatment. Pupil diameters were measured to within 0.1 mm for each eye at baseline and each subsequent time point using a NeurOptics™ pupilometer. Monocular high contrast visual acuity was measured for each eye under photopic conditions at baseline and each subsequent time point in a darkened room using a Precision Vision™ High Contrast (100% tint) Visual Acuity Chart (Catalog #2102) backlit by the Precision Vision Illumination Box. Monocular low contrast visual acuity was measured for each eye under photopic conditions at baseline and each subsequent time point in a darkened room using a Precision Vision™ Low Contrast (5% tint) Visual Acuity Chart (Catalog #2186) backlit by the Precision Vision Illumination Box. Effect of treatment on glare was assessed using an experimental test method consisting of a panel with a high wattage central light emitting diode (LED) and a set of 7 lower wattage red LEDs radiating horizontally and vertically from the central light.\nComparisons of changes in mean values within treatment groups were tested for significance using two-tailed paired two sample t-tests with a threshold for significance set at p<0.01 (Bonferroni Correction for multiple paired t-tests). Differences between treatment groups with respect to mean values for pupil size over the course of the study were tested for significance using repeated measure ANOVA (which discards data from subjects lacking any data points). Differences in mean eye redness between treatment groups were evaluated using Kruskal-Wallis nonparametric testing. Differences in means between treatment groups at individual time points were tested for significance using one-way ANOVA.", "key": {"[1]": {"settings": "0.2% (w/v) solution, 30 min after treatment"}, "[2]": {"settings": "0.2% (w/v) solution, 1 hour after treatment"}, "[3]": {"settings": "0.2% (w/v) solution, 2 hours after treatment"}, "[4]": {"settings": "0.2% (w/v) solution, 4 hours after treatment"}, "[5]": {"settings": "0.2% (w/v) solution, 8 hours after treatment"}, "[6]": {"settings": "0.2% (w/v) solution, Baseline, prior to treatment"}, "[7]": {"settings": "0.4% (w/v) solution, 30 min after treatment"}, "[8]": {"settings": "0.4% (w/v) solution, 1 hour after treatment"}, "[9]": {"settings": "0.4% (w/v) solution, 2 hours after treatment"}, "[10]": {"settings": "0.4% (w/v) solution, 4 hours after treatment"}, "[11]": {"settings": "0.4% (w/v) solution, 8 hours after treatment"}, "[12]": {"settings": "0.4% (w/v) solution, Baseline, prior to treatment"}, "[13]": {"settings": "0.8% (w/v) solution, 30 min after treatment"}, "[14]": {"settings": "0.8% (w/v) solution, 1 hour after treatment"}, "[15]": {"settings": "0.8% (w/v) solution, 2 hours after treatment"}, "[16]": {"settings": "0.8% (w/v) solution, 4 hours after treatment"}, "[17]": {"settings": "0.8% (w/v) solution, 8 hours after treatment"}, "[18]": {"settings": "0.8% (w/v) solution, Baseline, prior to treatment"}}, "note": "Where a name gives a salt, the structure may show the parent alone. Marks after values point to notes of the source that are not given here."}
{"smiles": "Cc1ccc(N(CC2=NCCN2)c2cccc(O)c2)cc1", "note": "[Phentolamine Mesylate, phentolamine mesylate]", "values": [{"measurement": "Maximum low contrast visual acuity", "setting": "[1]", "result": "−0.10", "unit": "LogMar"}, {"measurement": "Mean low contrast visual acuity", "setting": "[1]", "result": "−0.35", "unit": "LogMar"}, {"measurement": "Minimum low contrast visual acuity", "setting": "[1]", "result": "−0.78", "unit": "LogMar"}, {"measurement": "Maximum low contrast visual acuity", "setting": "[2]", "result": "−0.08", "unit": "LogMar"}, {"measurement": "Mean low contrast visual acuity", "setting": "[2]", "result": "−0.32", "unit": "LogMar"}, {"measurement": "Minimum low contrast visual acuity", "setting": "[2]", "result": "−0.80", "unit": "LogMar"}, {"measurement": "Maximum low contrast visual acuity", "setting": "[3]", "result": "−0.11", "unit": "LogMar"}, {"measurement": "Mean low contrast visual acuity", "setting": "[3]", "result": "−0.32", "unit": "LogMar"}, {"measurement": "Minimum low contrast visual acuity", "setting": "[3]", "result": "−0.74", "unit": "LogMar"}, {"measurement": "Maximum low contrast visual acuity", "setting": "[4]", "result": 0.00, "unit": "LogMar"}, {"measurement": "Mean low contrast visual acuity", "setting": "[4]", "result": "−0.30", "unit": "LogMar"}, {"measurement": "Minimum low contrast visual acuity", "setting": "[4]", "result": "−0.76", "unit": "LogMar"}, {"measurement": "Maximum low contrast visual acuity", "setting": "[5]", "result": "−0.08", "unit": "LogMar"}, {"measurement": "Mean low contrast visual acuity", "setting": "[5]", "result": "−0.30^e LogMar"}, {"measurement": "Minimum low contrast visual acuity", "setting": "[5]", "result": "−0.72", "unit": "LogMar"}, {"measurement": "Maximum low contrast visual acuity", "setting": "[6]", "result": "−0.06", "unit": "LogMar"}, {"measurement": "Mean low contrast visual acuity", "setting": "[6]", "result": "−0.34^d LogMar"}, {"measurement": "Minimum low contrast visual acuity", "setting": "[6]", "result": "−0.80", "unit": "LogMar"}, {"measurement": "Maximum low contrast visual acuity", "setting": "[7]", "result": 0.00, "unit": "LogMar"}, {"measurement": "Mean low contrast visual acuity", "setting": "[7]", "result": "−0.24", "unit": "LogMar"}, {"measurement": "Minimum low contrast visual acuity", "setting": "[7]", "result": "−0.70", "unit": "LogMar"}, {"measurement": "Maximum low contrast visual acuity", "setting": "[8]", "result": "−0.04", "unit": "LogMar"}, {"measurement": "Mean low contrast visual acuity", "setting": "[8]", "result": "−0.24", "unit": "LogMar"}, {"measurement": "Minimum low contrast visual acuity", "setting": "[8]", "result": "−0.78", "unit": "LogMar"}, {"measurement": "Maximum low contrast visual acuity", "setting": "[9]", "result": 0.00, "unit": "LogMar"}, {"measurement": "Mean low contrast visual acuity", "setting": "[9]", "result": "−0.22", "unit": "LogMar"}, {"measurement": "Minimum low contrast visual acuity", "setting": "[9]", "result": "−0.64", "unit": "LogMar"}, {"measurement": "Maximum low contrast visual acuity", "setting": "[10]", "result": 0.00, "unit": "LogMar"}, {"measurement": "Mean low contrast visual acuity", "setting": "[10]", "result": "−0.20", "unit": "LogMar"}, {"measurement": "Minimum low contrast visual acuity", "setting": "[10]", "result": "−0.70", "unit": "LogMar"}, {"measurement": "Maximum low contrast visual acuity", "setting": "[11]", "result": 0.00, "unit": "LogMar"}, {"measurement": "Mean low contrast visual acuity", "setting": "[11]", "result": "−0.22", "unit": "LogMar"}, {"measurement": "Minimum low contrast visual acuity", "setting": "[11]", "result": "−0.64", "unit": "LogMar"}, {"measurement": "Maximum low contrast visual acuity", "setting": "[12]", "result": "−0.10", "unit": "LogMar"}, {"measurement": "Mean low contrast visual acuity", "setting": "[12]", "result": "−0.28", "unit": "LogMar"}, {"measurement": "Minimum low contrast visual acuity", "setting": "[12]", "result": "−0.74", "unit": "LogMar"}, {"measurement": "mean low contrast acuity compared to baseline", "setting": "0.4% (w/v), 1, 2, 4, and 8 hours post treatment", "result": "significant increases"}, {"measurement": "Maximum low contrast visual acuity", "setting": "[13]", "result": "−0.02", "unit": "LogMar"}, {"measurement": "Mean low contrast visual acuity", "setting": "[13]", "result": "−0.28", "unit": "LogMar"}, {"measurement": "Minimum low contrast visual acuity", "setting": "[13]", "result": "−0.76", "unit": "LogMar"}, {"measurement": "Maximum low contrast visual acuity", "setting": "[14]", "result": 0.00, "unit": "LogMar"}, {"measurement": "Mean low contrast visual acuity", "setting": "[14]", "result": "−0.25", "unit": "LogMar"}, {"measurement": "Minimum low contrast visual acuity", "setting": "[14]", "result": "−0.62", "unit": "LogMar"}, {"measurement": "Maximum low contrast visual acuity", "setting": "[15]", "result": 0.00, "unit": "LogMar"}, {"measurement": "Mean low contrast visual acuity", "setting": "[15]", "result": "−0.22", "unit": "LogMar"}, {"measurement": "Minimum low contrast visual acuity", "setting": "[15]", "result": "−0.60", "unit": "LogMar"}, {"measurement": "Maximum low contrast visual acuity", "setting": "[16]", "result": 0.00, "unit": "LogMar"}, {"measurement": "Mean low contrast visual acuity", "setting": "[16]", "result": "−0.22", "unit": "LogMar"}, {"measurement": "Minimum low contrast visual acuity", "setting": "[16]", "result": "−0.70", "unit": "LogMar"}, {"measurement": "Maximum low contrast visual acuity", "setting": "[17]", "result": 0.00, "unit": "LogMar"}, {"measurement": "Mean low contrast visual acuity", "setting": "[17]", "result": "−0.25", "unit": "LogMar"}, {"measurement": "Minimum low contrast visual acuity", "setting": "[17]", "result": "−0.78", "unit": "LogMar"}, {"measurement": "Maximum low contrast visual acuity", "setting": "[18]", "result": "−0.11", "unit": "LogMar"}, {"measurement": "Mean low contrast visual acuity", "setting": "[18]", "result": "−0.34", "unit": "LogMar"}, {"measurement": "Minimum low contrast visual acuity", "setting": "[18]", "result": "−0.78", "unit": "LogMar"}, {"measurement": "mean low contrast acuity compared to baseline", "setting": "0.8% (w/v), all post-treatment time points", "result": "significant increases"}, {"measurement": "maximal mean increase in low contrast visual acuity", "setting": "0.8% (w/v), at 2 hours", "result": 0.12, "unit": "Log Mar"}, {"measurement": "improvement in low contrast vision", "setting": "0.8% (w/v), at 2 hours, equivalent of the maximal mean increase", "result": "~6 letters on a Snellen chart"}, {"measurement": "mean low contrast visual acuity, 0.2% (w/v) versus 0.4% and 0.8% (w/v) (ad hoc Fisher's test)", "setting": "2 hours post-dosing, P<0.05", "result": "significant differences"}]}
